Measurements published in patent US9738634B2, “Heterocyclic amide compound and herbicide” (SYNGENTA PARTICIPATIONS AG, priority 2013, dated 2017).

Tests used:
Format in all cases: in vivo
Conditions in all cases: treatment dosage 320 g/ha
wild oat [1] = assay: Test Example 3: weedkilling efficacy through soil treatment; G: wild oat
In short: (§1)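 Crop and weed responses were judged three weeks after a uniform surface spray of the water-diluted emulsion at the given g/ha rate. Seeds sat beneath about 1.5 cm of sterilized diluvial soil, and boxes stood in a greenhouse at 25 to 30° C.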

beet [2] = assay: Test Example 3: soil treatment, effect on crop; f: beet
In short: as §1

redroot pigweed [3] = assay: Test Example 3: weedkilling efficacy through soil treatment; L: redroot pigweed
In short: as §1

black-grass [4] = assay: Test Example 4: weedkilling efficacy by foliar treatment; H: black-grass
In short: (§2)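 Seeds are spot-sown into sterilized diluvial soil and covered with about 1.5 cm of soil. After 14 days' greenhouse growth at 25 to 30° C, plants are sprayed on stems and leaves with diluted emulsion at the stated g/ha rate, then scored at 3 weeks.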

corn [5] = assay: Test Example 3: soil treatment, effect on crop; c: corn
In short: as §1

beet [6] = assay: Test Example 4: foliar treatment, effect on crop; f: beet
In short: as §2

wheat [7] = assay: Test Example 4: foliar treatment, effect on crop; e: wheat
In short: as §2

fig-leafed goosefoot [8] = assay: Test Example 4: weedkilling efficacy by foliar treatment; M: fig-leafed goosefoot
In short: as §2

directly sown rice [9] = assay: Test Example 3: soil treatment, effect on crop; b: directly sown rice
In short: as §1

corn [10] = assay: Test Example 4: foliar treatment, effect on crop; c: corn
In short: as §2

green foxtail [11] = assay: Test Example 3: weedkilling efficacy through soil treatment; E: green foxtail
In short: as §1

crabgrass [12] = assay: Test Example 4: weedkilling efficacy by foliar treatment; D: crabgrass
In short: as §2

barnyard grass [13] = assay: Test Example 3: weedkilling efficacy through soil treatment; F: barnyard grass
In short: as §1

rapeseed [14] = assay: Test Example 3: soil treatment, effect on crop; g: rapeseed
In short: as §1

chickweed [15] = assay: Test Example 3: weedkilling efficacy through soil treatment; N: chickweed
In short: as §1

birds-eye speedwell [16] = assay: Test Example 4: weedkilling efficacy by foliar treatment; p: birds-eye speedwell
In short: as §2

common wind-grass [17] = assay: Test Example 4: weedkilling efficacy by foliar treatment; J: common wind-grass
In short: as §2

crabgrass [18] = assay: Test Example 3: weedkilling efficacy through soil treatment; D: crabgrass
In short: as §1

bulrush [19] = assay: Test Example 2: weedkilling efficacy, growth period weed treatment in the submerged state; B: bulrush
In short: (§3)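 Weeds treated at the 1-2 leaf stage by application of diluted emulsion onto floodwater (4 cm depth, alluvial soil) at specified g/ha. Grown in greenhouse at 25 to 30° C; herbicidal effect rated three weeks after treatment.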

green foxtail [20] = assay: Test Example 4: weedkilling efficacy by foliar treatment; E: green foxtail
In short: as §2

transplanted rice = assay: Test Example 1: preemergent weed treatment in the submerged state, effect on crop; a: transplanted rice
In short: (§4)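 Pre-emergence application onto floodwater (4 cm, alluvial soil) on the day of sowing, dose expressed as g/ha from diluted emulsion formulation. Weeds sown with 2.5-leaf transplanted rice as crop; plants held at 25–30 °C in greenhouse and scored against assessment criteria after 3 weeks.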

soybean [21] = assay: Test Example 3: soil treatment, effect on crop; d: soybean
In short: as §1

catchweed [22] = assay: Test Example 3: weedkilling efficacy through soil treatment; O: catchweed
In short: as §1

black-grass [23] = assay: Test Example 3: weedkilling efficacy through soil treatment; H: black-grass
In short: as §1

Italian ryegrass [24] = assay: Test Example 3: weedkilling efficacy through soil treatment; I: Italian ryegrass
In short: as §1

oval-leafed pondweed [25] = assay: Test Example 1: weedkilling efficacy, preemergent weed treatment in the submerged state; C: oval-leafed pondweed
In short: as §4

common wind-grass [26] = assay: Test Example 3: weedkilling efficacy through soil treatment; J: common wind-grass
In short: as §1

fig-leafed goosefoot [27] = assay: Test Example 3: weedkilling efficacy through soil treatment; M: fig-leafed goosefoot
In short: as §1

wild oat [28] = assay: Test Example 4: weedkilling efficacy by foliar treatment; G: wild oat
In short: as §2

barnyard grass [29] = assay: Test Example 4: weedkilling efficacy by foliar treatment; F: barnyard grass
In short: as §2

rapeseed [30] = assay: Test Example 4: foliar treatment, effect on crop; g: rapeseed
In short: as §2

redroot pigweed [31] = assay: Test Example 4: weedkilling efficacy by foliar treatment; L: redroot pigweed
In short: as §2

catchweed [32] = assay: Test Example 4: weedkilling efficacy by foliar treatment; O: catchweed
In short: as §2

barnyard grass [33] = assay: Test Example 2: weedkilling efficacy, growth period weed treatment in the submerged state; A: barnyard grass
In short: as §3

wheat [34] = assay: Test Example 3: soil treatment, effect on crop; e: wheat
In short: as §1

oval-leafed pondweed [35] = assay: Test Example 2: weedkilling efficacy, growth period weed treatment in the submerged state; C: oval-leafed pondweed
In short: as §3

directly sown rice [36] = assay: Test Example 4: foliar treatment, effect on crop; b: directly sown rice
In short: as §2

soybean [37] = assay: Test Example 4: foliar treatment, effect on crop; d: soybean
In short: as §2

birds-eye speedwell [38] = assay: Test Example 3: weedkilling efficacy through soil treatment; p: birds-eye speedwell
In short: as §1

Indian mallow [39] = assay: Test Example 4: weedkilling efficacy by foliar treatment; K: Indian mallow
In short: as §2

Italian ryegrass [40] = assay: Test Example 4: weedkilling efficacy by foliar treatment; I: Italian ryegrass
In short: as §2

barnyard grass [41] = assay: Test Example 1: weedkilling efficacy, preemergent weed treatment in the submerged state; A: barnyard grass
In short: as §4

bulrush [42] = assay: Test Example 1: weedkilling efficacy, preemergent weed treatment in the submerged state; B: bulrush
In short: as §4

chickweed [43] = assay: Test Example 4: weedkilling efficacy by foliar treatment; N: chickweed
In short: as §2

Indian mallow [44] = assay: Test Example 3: weedkilling efficacy through soil treatment; K: Indian mallow
In short: as §1

## CC1=C(c2ccccc2)C(=O)N(C(C)(C)C(=O)Nc2cc(C(F)F)cc(Cl)n2)CO1 [B-2-44]
Wild oat [1]
  G (wild oat) weedkilling efficacy grade: 2 (weed kill ratio 20% or more, less than 40%)
Beet [2]
  f (beet) effect on crop grade: 3 (weed kill ratio 40% or more, less than 70%)
Redroot pigweed [3]
  L (redroot pigweed) weedkilling efficacy grade: 0 (weed kill ratio 5% or less (practically no effect))
black-grass [4]
  H (black-grass) weedkilling efficacy grade: 5 (weed kill ratio 90% or more, (practically complete withering))
Corn [5]
  c (corn) effect on crop grade: 0 (weed kill ratio 5% or less (practically no effect))
Beet [6]
  f (beet) effect on crop grade: 3 (weed kill ratio 40% or more, less than 70%)
Wheat [7]
  e (wheat) effect on crop grade: 4 (weed kill ratio 70% or more, less than 90%)
fig-leafed goosefoot [8]
  M (fig-leafed goosefoot) weedkilling efficacy grade: 3 (weed kill ratio 40% or more, less than 70%)
Directly sown rice [9]
  b (directly sown rice) effect on crop grade: 3 (weed kill ratio 40% or more, less than 70%)
Corn [10]
  c (corn) effect on crop grade: 1 (weed kill ratio 5% or more, less than 20%)
Green foxtail [11]
  E (green foxtail) weedkilling efficacy grade: 5 (weed kill ratio 90% or more, (practically complete withering))
Crabgrass [12]
  D (crabgrass) weedkilling efficacy grade: 4 (weed kill ratio 70% or more, less than 90%)
Barnyard grass [13]
  F (barnyard grass) weedkilling efficacy grade: 5 (weed kill ratio 90% or more, (practically complete withering))
Rapeseed [14]
  g (rapeseed) effect on crop grade: 4 (weed kill ratio 70% or more, less than 90%)
Chickweed [15]
  N (chickweed) weedkilling efficacy grade: 3 (weed kill ratio 40% or more, less than 70%)
birds-eye speedwell [16]
  P (birds-eye speedwell) weedkilling efficacy grade: 5 (weed kill ratio 90% or more, (practically complete withering))
Common wind-grass [17]
  J (common wind-grass) weedkilling efficacy grade: 5 (weed kill ratio 90% or more, (practically complete withering))
Crabgrass [18]
  D (crabgrass) weedkilling efficacy grade: 5 (weed kill ratio 90% or more, (practically complete withering))
Bulrush [19]
  B (bulrush) weedkilling efficacy grade: 5 (weed kill ratio 90% or more, (practically complete withering))
Green foxtail [20]
  E (green foxtail) weedkilling efficacy grade: 5 (weed kill ratio 90% or more, (practically complete withering))
Transplanted rice
  a (transplanted rice) effect on crop grade: 5 (weed kill ratio 90% or more, (practically complete withering))
Soybean [21]
  d (soybean) effect on crop grade: 0 (weed kill ratio 5% or less (practically no effect))
Catchweed [22]
  O (catchweed) weedkilling efficacy grade: 0 (weed kill ratio 5% or less (practically no effect))
black-grass [23]
  H (black-grass) weedkilling efficacy grade: 5 (weed kill ratio 90% or more, (practically complete withering))
Italian ryegrass [24]
  I (Italian ryegrass) weedkilling efficacy grade: 5 (weed kill ratio 90% or more, (practically complete withering))
oval-leafed pondweed [25]
  C (oval-leafed pondweed) weedkilling efficacy grade: 5 (weed kill ratio 90% or more, (practically complete withering))
Common wind-grass [26]
  J (common wind-grass) weedkilling efficacy grade: 5 (weed kill ratio 90% or more, (practically complete withering))
fig-leafed goosefoot [27]
  M (fig-leafed goosefoot) weedkilling efficacy grade: 3 (weed kill ratio 40% or more, less than 70%)
Wild oat [28]
  G (wild oat) weedkilling efficacy grade: 3 (weed kill ratio 40% or more, less than 70%)
Barnyard grass [29]
  F (barnyard grass) weedkilling efficacy grade: 4 (weed kill ratio 70% or more, less than 90%)
Rapeseed [30]
  g (rapeseed) effect on crop grade: 5 (weed kill ratio 90% or more, (practically complete withering))
Redroot pigweed [31]
  L (redroot pigweed) weedkilling efficacy grade: 3 (weed kill ratio 40% or more, less than 70%)
Catchweed [32]
  O (catchweed) weedkilling efficacy grade: 5 (weed kill ratio 90% or more, (practically complete withering))
Barnyard grass [33]
  A (barnyard grass) weedkilling efficacy grade: 5 (weed kill ratio 90% or more, (practically complete withering))
Wheat [34]
  e (wheat) effect on crop grade: 1 (weed kill ratio 5% or more, less than 20%)
oval-leafed pondweed [35]
  C (oval-leafed pondweed) weedkilling efficacy grade: 5 (weed kill ratio 90% or more, (practically complete withering))
Directly sown rice [36]
  b (directly sown rice) effect on crop grade: 3 (weed kill ratio 40% or more, less than 70%)
Soybean [37]
  d (soybean) effect on crop grade: 4 (weed kill ratio 70% or more, less than 90%)
birds-eye speedwell [38]
  P (birds-eye speedwell) weedkilling efficacy grade: 4 (weed kill ratio 70% or more, less than 90%)
Indian mallow [39]
  K (Indian mallow) weedkilling efficacy grade: 4 (weed kill ratio 70% or more, less than 90%)
Italian ryegrass [40]
  I (Italian ryegrass) weedkilling efficacy grade: 5 (weed kill ratio 90% or more, (practically complete withering))
Barnyard grass [41]
  A (barnyard grass) weedkilling efficacy grade: 5 (weed kill ratio 90% or more, (practically complete withering))
Bulrush [42]
  B (bulrush) weedkilling efficacy grade: 5 (weed kill ratio 90% or more, (practically complete withering))
Chickweed [43]
  N (chickweed) weedkilling efficacy grade: 4 (weed kill ratio 70% or more, less than 90%)
Indian mallow [44]
  K (Indian mallow) weedkilling efficacy grade: 0 (weed kill ratio 5% or less (practically no effect))
